Data taken from patent US9023789B2, “Amylin analogs and pharmaceutical compositions thereof” (Novo Nordisk A/S, priority 2012, dated 2015).
In brackets after ≈: the same amount, converted by molar mass. Where two headings read alike, the source gives them in different places.

Legend:
[1] = target: T1, human amylin 3(a) receptor (human calcitonin receptor + RAMP-3) in BHK570 cells (Homo sapiens, UniProt O60896+P30988); test: ASSAY (II)a functional assay, human amylin receptor (CRE luciferase); assay type: cell-based
T1 construct: expressed in transfected cells
In short: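 BHK cells stably carrying a CRE-luciferase reporter plus calcitonin receptor, or calcitonin receptor with RAMP-3 for the amylin 3(a) receptor, were seeded and kept overnight at 37° C. Compounds were added in assay medium with 10% FBS and 10 mM Hepes, pH 7.4, for 3 hours at 37° C, then luminescence was counted.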

[2] = ASSAY (IV) determination of solubility; assay type: physicochemical
In short: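 Dissolve polypeptide in water ([…] stock); combine 1:1 with each 100 mM buffer (glycylglycine pH 3.0/4.0/5.0; bistrispropane pH 6.0/6.5/7.0/7.5/8.0); hold 18 hours at room temperature; centrifuge; quantify polypeptide by UPLC.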

[3] = target: T2, human amylin receptor (membranes from Amylin 3(a)/CRE-luc cells) (Homo sapiens, UniProt O60896+P30988); test: ASSAY (V) binding to the human amylin receptor (SPA, 125I-rat amylin);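 note: competition binding of cell membranes (35 ng/µL) mixed with SPA beads in 384-well plates at 40 µL total volume, read by scintillation counting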
T2 construct: expressed in transfected cells
T2 sequence (P30988 25-474): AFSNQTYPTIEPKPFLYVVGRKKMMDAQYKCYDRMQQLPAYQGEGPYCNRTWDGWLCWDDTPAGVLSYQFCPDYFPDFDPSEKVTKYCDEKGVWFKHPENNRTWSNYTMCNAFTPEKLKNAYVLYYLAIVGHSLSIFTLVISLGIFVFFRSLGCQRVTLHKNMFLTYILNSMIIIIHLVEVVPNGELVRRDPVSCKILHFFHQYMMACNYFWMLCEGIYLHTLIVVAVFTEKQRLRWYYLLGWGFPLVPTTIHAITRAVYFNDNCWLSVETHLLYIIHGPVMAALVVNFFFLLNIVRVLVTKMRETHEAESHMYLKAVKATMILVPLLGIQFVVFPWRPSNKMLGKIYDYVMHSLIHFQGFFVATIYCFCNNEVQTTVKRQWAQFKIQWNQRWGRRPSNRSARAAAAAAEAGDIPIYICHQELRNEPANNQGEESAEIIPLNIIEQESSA
T2 sequence (O60896 24-148 partner): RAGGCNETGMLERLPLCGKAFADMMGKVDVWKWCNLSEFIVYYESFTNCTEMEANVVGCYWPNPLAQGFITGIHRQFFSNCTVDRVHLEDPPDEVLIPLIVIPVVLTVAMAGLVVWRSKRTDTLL

[4] = target: T3, rat amylin receptor (rat calcitonin receptor + rat RAMP 3) (Rattus norvegicus, UniProt P32214+Q9JJ73); test: ASSAY (VI) binding to the rat amylin receptor
T3 construct: expressed in transfected cells; host or cells: BHK tk'ts 13 (transient, FuGENE 6), membranes
T3 sequence (P32214 25-479 isoform P32214-2 limits assumed): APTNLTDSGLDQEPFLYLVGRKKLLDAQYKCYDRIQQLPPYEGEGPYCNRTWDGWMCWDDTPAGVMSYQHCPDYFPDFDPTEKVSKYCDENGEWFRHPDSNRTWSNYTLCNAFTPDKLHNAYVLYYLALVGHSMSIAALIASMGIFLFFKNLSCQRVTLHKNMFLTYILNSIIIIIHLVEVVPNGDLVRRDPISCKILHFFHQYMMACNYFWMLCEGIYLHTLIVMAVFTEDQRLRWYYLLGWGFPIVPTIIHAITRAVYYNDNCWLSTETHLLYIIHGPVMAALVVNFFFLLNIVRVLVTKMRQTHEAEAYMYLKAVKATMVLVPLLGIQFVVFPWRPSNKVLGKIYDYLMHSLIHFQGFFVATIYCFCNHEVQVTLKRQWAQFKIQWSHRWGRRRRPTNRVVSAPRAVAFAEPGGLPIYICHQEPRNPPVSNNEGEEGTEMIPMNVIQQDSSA
T3 sequence (Q9JJ73 23-147 partner): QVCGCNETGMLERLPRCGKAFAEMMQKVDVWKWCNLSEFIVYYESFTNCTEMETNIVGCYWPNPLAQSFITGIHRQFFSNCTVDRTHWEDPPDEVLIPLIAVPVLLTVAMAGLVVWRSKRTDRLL
In short: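 Binding to the rat amylin receptor was determined with membrane preparations. The receptor was expressed by transiently transfecting BHK tk′ts 13 cells with rat calcitonin receptor, using FuGENE® 6 (Roche) according to the manufacturer's recommendations. Roughly 48 hours later the cells were harvested and their membranes isolated.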

rat calcitonin receptor = target: T4, rat calcitonin receptor (Rattus norvegicus, UniProt P32214); test: ASSAY (VIII) binding to the rat calcitonin receptor; settings: Table 7, read-out: rCTR bind IC50
T4 construct: expressed in transfected cells; host or cells: BHK tk'ts 13 (transient, FuGENE 6), membranes
T4 sequence (P32214 25-479 isoform P32214-2 limits assumed): T3 sequence (P32214 25-479 isoform P32214-2 limits assumed)
In short: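 Rat calcitonin receptor is expressed transiently in BHK tk′ts 13 cells cultured in DMEM with 10% FBS. Roughly two days (approximately 48 hours) post-transfection, cells are harvested for membrane preparation.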

Ratio hCT/hAmylin funct. ([1]; hCTR funct. EC50 divided by hAmylin-R funct. EC50): 60.9
Ratio hCT/hAmylin funct. ([1]; hCTR funct. EC50 over hAmylin-R funct. EC50): 60.9
Ratio hCT/hAmylin funct. ([1]; human functional selectivity: hCTR funct. EC50 / hAmylin-R funct. EC50): 60.9
solubility at 18 h ([2]; bistrispropane buffer, pH 6.5, read-out: Solubility pH 6.5 Concentration): ≥ 200 µM
solubility at 18 h ([2]; bistrispropane buffer, pH 7.5, read-out: Solubility pH 7.5 Concentration): 154 µM (≈ 678 µg/mL)
solubility at 18 h ([2]; bistrispropane buffer, pH 6.0, read-out: Solubility pH 6.0 Concentration): ≥ 200 µM
solubility at 18 h ([2]; bistrispropane buffer, pH 8.0, read-out: Solubility pH 8.0 Concentration): 96 µM (≈ 423 µg/mL)
solubility at 18 h ([2]; glycylglycine buffer, pH 3.0, read-out: Solubility pH 3.0 Concentration): ≥ 200 µM
solubility at 18 h ([2]; glycylglycine buffer, pH 4.0, read-out: Solubility pH 4.0 Concentration): ≥ 200 µM
solubility at 18 h ([2]; glycylglycine buffer, pH 5.0, read-out: Solubility pH 5.0 Concentration): ≥ 200 µM
Ratio hCT/hAmylin binding ([3]; Table 5, selectivity, hCTR bind IC50 / hAmylin-R bind IC50): 59.4
Ratio hCT/hAmylin binding ([3]; Table 5a, selectivity, hCTR bind IC50 / hAmylin-R bind IC50): 59.4
Ratio hCT/hAmylin binding ([3]; Table 5b, selectivity, hCTR bind IC50 / hAmylin-R bind IC50): 59.4
Ratio hCT/hAmylin binding ([3]; Table 5c, selectivity, hCTR bind IC50 / hAmylin-R bind IC50): 59.4
Ratio hCT/hAmylin binding ([3]; Table 7, human binding selectivity, included for comparison): 59.4
Ratio hCT/hAmylin binding ([3]; Table 7a (preferred compounds), human binding selectivity, included for comparison): 59.4
Ratio hCT/hAmylin binding ([3]; ratio of human calcitonin receptor binding IC50 to human amylin receptor binding IC50): 59.4
IC50 ([4]; Table 7, binding to rat amylin receptor, read-out: rAmylin-R bind IC50): 1.17 nM
Ratio rCT/rAmylin binding ([4]; Table 7, rat binding selectivity, rCTR IC50 / rAmylin-R IC50): 40.3
Ratio rCT/rAmylin binding ([4]; Table 7a (preferred compounds), rat binding selectivity, rCTR IC50 / rAmylin-R IC50): 40.3
Ratio rCT/rAmylin binding ([4]; ratio of rCTR bind IC50 to rAmylin-R bind IC50): 40.3
IC50 (rat calcitonin receptor): 47 nM
SMILES: CC[C@H](C)[C@H](NC(=O)[C@H](C)NC(=O)CNC(=O)[C@H](Cc1ccccc1)NC(=O)[C@H](CC(N)=O)NC(=O)[C@@H]1CCCN1C(=O)[C@H](CO)NC(=O)[C@H](CO)NC(=O)[C@H](Cc1c[nH]cn1)NC(=O)[C@H](CCCNC(=N)N)NC(=O)[C@H](CC(C)C)NC(=O)[C@H](Cc1ccccc1)NC(=O)[C@H](CC(N)=O)NC(=O)[C@H](C)NC(=O)[C@H](CC(C)C)NC(=O)[C@H](CCCNC(=N)N)NC(=O)[C@H](CCC(N)=O)NC(=O)[C@@H](NC(=O)[C@H](C)NC(=O)[C@@H]1CSSC[C@H](NC(=O)[C@@H](N)CCCCNC(=O)CC[C@H](NC(=O)CCCCCCCCCCCCCCCCC(=O)O)C(=O)O)C(=O)N[C@@H](CC(N)=O)C(=O)N[C@@H]([C@@H](C)O)C(=O)N[C@@H](C)C(=O)N[C@@H]([C@@H](C)O)C(=O)N1)[C@@H](C)O)C(=O)N1CCC[C@H]1C(=O)N[C@@H](CO)C(=O)N[C@@H](CO)C(=O)N[C@H](C(=O)N[C@@H](CC(N)=O)C(=O)N[C@H](C(=O)NCC(=O)N[C@@H](Cc1c[nH]cn1)C(=O)N[C@@H](CC(N)=O)C(=O)N[C@H](C(=O)N[C@@H](Cc1ccc(O)cc1)C(N)=O)[C@@H](C)O)C(C)C)[C@@H](C)O [Example 113]
